Key:
Assay type in all cases: in vivo
[1] = tested on: ryegrass, It. (Italian ryegrass, Lolium multiflorum); test: Test A postemergence application, visual injury rating; conditions: 0 to 100 scale, 0 no effect, 100 complete control
Excerpt: (§1) Seeds of plant species selected from barnyardgrass (Echinochloa crus-galli), kochia (Kochia scoparia), ragweed (common ragweed, Ambrosia elatior), ryegrass, It. (Italian ryegrass, Lolium multiflorum), foxtail, giant (giant foxtail, Setaria faberii), and pigweed (Amaranthus retroflexus), were planted into a blend of loam soil and sand and treated preemergence with a directed soil spray using test chemicals formulated in a non-phytotoxic solvent mixture which included a surfactant.
(§2) At the same time, plants selected from these weed species and also wheat (Triticum aestivum), corn (Zea mays), blackgrass (Alopecurus myosuroides), and galium (catchweed bedstraw, Galium aparine), were planted in pots containing the same blend of loam soil and sand and treated with postemergence applications of test chemicals formulated in the same manner Plants ranged in height from 2 to 10 cm and were in the one- to two-leaf stage for the postemergence treatment. Treated plants and untreated controls were maintained in a greenhouse for approximately 10 d, after which time all treated plants were compared to untreated controls and visually evaluated for injury. Plant response ratings, summarized in Table A, are based on a 0 to 100 scale where 0 is no effect and 100 is complete control. A dash (-) response means no test result.

kochia (Kochia scoparia) [2] = test: as above; conditions: 0 to 100 scale, 0 no effect, 100 complete control
Excerpt: as §1, §2

[3] = tested on: barnyardgrass (Echinochloa crus-galli); test: as above; conditions: 0 to 100 scale, 0 no effect, 100 complete control
Excerpt: as §1, §2

[4] = tested on: foxtail, giant (giant foxtail, Setaria faberii); test: as above; conditions: 0 to 100 scale, 0 no effect, 100 complete control
Excerpt: as §1, §2

corn (Zea mays) = test: as above; conditions: 0 to 100 scale, 0 no effect, 100 complete control
Excerpt: as §1, §2

[5] = tested on: blackgrass (Alopecurus myosuroides); test: as above; conditions: 0 to 100 scale, 0 no effect, 100 complete control
Excerpt: as §1, §2

[6] = tested on: ragweed (common ragweed, Ambrosia elatior); test: as above; conditions: 0 to 100 scale, 0 no effect, 100 complete control
Excerpt: as §1, §2

[7] = tested on: wheat (Triticum aestivum); test: as above; conditions: 0 to 100 scale, 0 no effect, 100 complete control
Excerpt: as §1, §2

[8] = tested on: galium (catchweed bedstraw, Galium aparine); test: as above; conditions: 0 to 100 scale, 0 no effect, 100 complete control
Excerpt: as §1, §2

[9] = tested on: pigweed (Amaranthus retroflexus); test: as above; conditions: 0 to 100 scale, 0 no effect, 100 complete control
Excerpt: as §1, §2

[10] = tested on: ryegrass, It. (Italian ryegrass, Lolium multiflorum); test: Test A preemergence, directed soil spray, visual injury rating; conditions: 0 is no effect, 100 is complete control
Excerpt: as §1, §2

kochia (Kochia scoparia) [11] = test: as above; conditions: 0 is no effect, 100 is complete control
Excerpt: as §1, §2

[12] = tested on: barnyardgrass (Echinochloa crus-galli); test: as above; conditions: 0 is no effect, 100 is complete control
Excerpt: as §1, §2

[13] = tested on: foxtail, giant (giant foxtail, Setaria faberii); test: as above; conditions: 0 is no effect, 100 is complete control
Excerpt: as §1, §2

[14] = tested on: ragweed (common ragweed, Ambrosia elatior); test: as above; conditions: 0 is no effect, 100 is complete control
Excerpt: as §1, §2

[15] = tested on: pigweed (Amaranthus retroflexus); test: as above; conditions: 0 is no effect, 100 is complete control
Excerpt: as §1, §2

| Structure (SMILES) | Ryegrass, It. plant response rating ([1]; 125 g ai/ha) | Ryegrass, It. plant response rating ([1]; 500 g ai/ha) | Kochia plant response rating (kochia (Kochia scoparia) [2]; 125 g ai/ha) | Kochia plant response rating (kochia (Kochia scoparia) [2]; 500 g ai/ha) | Barnyardgrass plant response rating ([3]; 125 g ai/ha) | Barnyardgrass plant response rating ([3]; 500 g ai/ha) | Foxtail, Giant plant response rating ([4]; 125 g ai/ha) | Foxtail, Giant plant response rating ([4]; 500 g ai/ha) | Corn plant response rating (corn (Zea mays); 125 g ai/ha) | Corn plant response rating (corn (Zea mays); 500 g ai/ha) | Blackgrass plant response rating ([5]; 125 g ai/ha) | Blackgrass plant response rating ([5]; 500 g ai/ha) | Ragweed plant response rating ([6]; 125 g ai/ha) | Ragweed plant response rating ([6]; 500 g ai/ha) | Wheat plant response rating ([7]; 125 g ai/ha) | Wheat plant response rating ([7]; 500 g ai/ha) | Galium plant response rating ([8]; 125 g ai/ha) | Galium plant response rating ([8]; 500 g ai/ha) | Pigweed plant response rating ([9]; 125 g ai/ha) | Pigweed plant response rating ([9]; 500 g ai/ha) | also measured |
| --- | --- | --- | --- | --- | --- | --- | --- | --- | --- | --- | --- | --- | --- | --- | --- | --- | --- | --- | --- | --- | --- |
| Cc1cnc2sc(C)c(-c3c(OC(=O)C4CC4)c(C)nn(C)c3=O)c2c1 [Compound 9] | 30 | 60 | 40 | 50 | 0 | 20 | 0 | 40 | 0 | 0 | 0 | 20 | 10 | 30 | 0 | 0 | 50 | 60 | 50 | 80 | Plant response rating (0 to 100 scale), Ryegrass, It. ([10]; 125 g ai/ha): 30; Plant response rating (0 to 100 scale), Ryegrass, It. ([10]; 500 g ai/ha): 70; Plant response rating (0 to 100 scale), Kochia (kochia (Kochia scoparia) [11]; 125 g ai/ha): 0; Plant response rating (0 to 100 scale), Kochia (kochia (Kochia scoparia) [11]; 500 g ai/ha): 30; Plant response rating (0 to 100 scale), Barnyardgrass ([12]; 125 g ai/ha): 0; Plant response rating (0 to 100 scale), Barnyardgrass ([12]; 500 g ai/ha): 0; Plant response rating (0 to 100 scale), Foxtail, Giant ([13]; 125 g ai/ha): 0; Plant response rating (0 to 100 scale), Foxtail, Giant ([13]; 500 g ai/ha): 40; Plant response rating (0 to 100 scale), Ragweed ([14]; 500 g ai/ha): 30; Plant response rating (0 to 100 scale), Pigweed ([15]; 125 g ai/ha): 0; Plant response rating (0 to 100 scale), Pigweed ([15]; 500 g ai/ha): 30 |
| CCC(=O)Oc1c(C)nn(C)c(=O)c1-c1cccc2sccc12 [Compound 4] | 80 | 100 | 0 | 20 | 0 | 20 | 0 | 20 | 0 | 0 | 20 | 30 | 0 | 40 | 0 | 0 | 70 | 90 | 20 | 30 | Plant response rating (0 to 100 scale), Ryegrass, It. ([10]; 125 g ai/ha): 40; Plant response rating (0 to 100 scale), Ryegrass, It. ([10]; 500 g ai/ha): 100; Plant response rating (0 to 100 scale), Kochia (kochia (Kochia scoparia) [11]; 125 g ai/ha): 0; Plant response rating (0 to 100 scale), Kochia (kochia (Kochia scoparia) [11]; 500 g ai/ha): 60; Plant response rating (0 to 100 scale), Barnyardgrass ([12]; 125 g ai/ha): 0; Plant response rating (0 to 100 scale), Barnyardgrass ([12]; 500 g ai/ha): 20; Plant response rating (0 to 100 scale), Foxtail, Giant ([13]; 125 g ai/ha): 0; Plant response rating (0 to 100 scale), Foxtail, Giant ([13]; 500 g ai/ha): 20; Plant response rating (0 to 100 scale), Ragweed ([14]; 125 g ai/ha): 0; Plant response rating (0 to 100 scale), Ragweed ([14]; 500 g ai/ha): 20; Plant response rating (0 to 100 scale), Pigweed ([15]; 125 g ai/ha): 40; Plant response rating (0 to 100 scale), Pigweed ([15]; 500 g ai/ha): 70 |

From patent US10750743B2, “Pyridazinone herbicides” (E.I. DU PONT DE NEMOURS AND COMPANY, priority 2015, dated 2020)
